Several values for one entry are separate records, joined by “and”; a condition that tells them apart may be missing. Equal entries are not always repeated. Where two headings read alike, the source gives them in different places.
Key:
[1] = test system: NAD+ content of A2780 cells; experiment: NAD+ assay in A2780 cells; type: cell-based, human
Experimental: (§1) NAD^+ assays were performed to quantify the total NAD^+ content. NAD^+ assay was performed using the NAD/NADH Assay Kit (ab65348; Abcam) according to the manufacturer’s recommended protocol.

[2] = test system: NAD+ content of A549 KO HIF-1α cells; experiment: NAD+ content, A549 KO HIF-1α cells with or without PBMC; type: cell-based, human; design: unit not given here
Experimental: as §1

[3] = test system: glycolytic genes in A549 cells; experiment: RT-PCR of glycolytic genes, A549 cells co-cultured with PBMC; type: cell-based, human; design: key to Aldoa mRNA level / Eno1 mRNA level / HK2 mRNA level / Glut1 mRNA level: relative mRNA level normalized to GAPDH (endogenous control)
Experimental: (§2) Total RNA was isolated using TRIzol reagent (Invitrogen, 15596026) according to the manufacturer's protocol. First-strand cDNA synthesis was performed using a RevertAid First Strand cDNA Synthesis Kit (Thermo Fisher, […]). Quantitative real-time PCR analysis was performed by mixing 10 μl SYBR, 0.4 μM forward primer, 0.4 μM reverse primer, 1 μl cDNA, and 8.2 μl distilled water per sample with Top Green qPCR SuperMix (Transgene, AQ601-04) by the manufacturer's protocols. GAPDH was used as an endogenous control. All qRT-PCRs were set up in triplicate using three biological replicates for each sample. Primer information is shown in Appendix Table S1.

[4] = test system: IFN-γ and TNF-α in LLC OE NAMPT/PD-L1 tumor tissues; experiment: ELISA of IFN-γ and TNF-α in tumor tissues of LLC OE NAMPT/PD-L1 mouse model; design: unit not given here; conditions: in vivo, tumor tissue, CQ-85 20 mg/kg
[5] = test system: pyruvate content of A549 cells; experiment: Pyruvate (PA) content, A549 cells with or without PBMC; type: cell-based, human; design: unit not given beside the values
Excerpt: Supplement 44321_2024_51_MOESM3_ESM.zip/Fig-2-K-PA.xlsx, sheet "Sheet1" | column: A549

[6] = test system: IFN-γ and TNF-α secretion, LLC cells co-cultured with T cells; experiment: ELISA of IFN-γ and TNF-α, LLC cells under co-culture condition; type: cell-based, mouse; design: unit not given here; conditions: in vitro
[7] = test system: glycolytic genes in LLC cells; experiment: RT-PCR of glycolytic genes in LLC cells with or without T cells; type: cell-based, mouse; design: key to HK2 mRNA level / Glut1 mRNA level / Aldoa mRNA level / Eno1 mRNA level: relative mRNA level normalized to GAPDH (endogenous control)
Experimental: as §2

[8] = test system: glycolytic genes in A549 KO HIF-1α cells; experiment: RT-PCR of glycolytic genes, A549 KO HIF-1α cells co-cultured with PBMC; type: cell-based, human; conditions: A549 KO HIF-1α co-cultured with PBMC
Experimental: as §2

[9] = test system: LLC OE NAMPT/PD-L1 tumors; experiment: LLC OE NAMPT/PD-L1 tumor-bearing C57BL/6 mice; type: in vivo, mouse; conditions: 20 mg/kg i.p.; 14 days; Fig 7B
[10] = test system: NAD+ content of A549 cells; experiment: NAD+ content, A549 cells with or without PBMC; type: cell-based, human; design: unit not given here
Experimental: as §1

[11] = test system: pyruvate content of LLC cells; experiment: Pyruvate (PA) content in LLC cells with or without T cells; type: cell-based, mouse; design: unit not given beside the values
Excerpt: Supplement 44321_2024_51_MOESM3_ESM.zip/Fig-2-G.xlsx, sheet "Sheet1" | column: "-T cells; "+T cells

[12] = test system: NAD+ content of LLC cells; experiment: NAD+ content in LLC cells with or without T cells; type: cell-based, mouse; design: unit not given here
Experimental: as §1

[13] = test system: pyruvate content of A549 KO HIF-1α cells; experiment: Pyruvate (PA) content, A549 KO HIF-1α cells with or without PBMC; type: cell-based, human; design: unit not given beside the values
Excerpt: Supplement 44321_2024_51_MOESM3_ESM.zip/Fig-2-K-PA.xlsx, sheet "Sheet1" | column: A549 KO HIF-1α

[14] = test system: NAMPT expression in LLC OE NAMPT/PD-L1 tumors; experiment: NAMPT protein expression in LLC constructed xenograft model; type: in vivo, mouse; conditions: CQ-85 20 mg/kg vs control group
[15] = test system: NAD+ content of LLC OE NAMPT/PD-L1 tumor tissue; experiment: NAD+ in tumor tissue, LLC OE NAMPT/PD-L1 mouse model; type: in vivo; conditions: 20 mg/kg; tumor tissue
[16] = test system: A20 tumors; experiment: A20 tumor-bearing Balb/c mice; type: in vivo, mouse; conditions: A20 model; FK866 20 mg/kg, LZFPN-90 20 and 40 mg/kg i.p.
[17] = test system: PD-L1 expression in A2780 and LLC cells; experiment: PD-L1 expression (western blot, flow cytometry, qRT-PCR) in A2780 and LLC cells; type: cell-based, human, mouse; conditions: 72 h
Experimental: For surface marker detection, tumor single-cell suspensions and spleen lymphocytes were incubated at 4 °C for 30 min in PBS with 0.1% Fixable Viability Dye (eBioscience 65-0863-14). Cells were washed and incubated in staining buffer (PBS with 1% FBS) with surface marker antibodies, the dilution ratio of all flow antibodies was 1:200 (BioLegend, CD3-APC 100235, CD3-PE 100205, CD4-FITC 100405, CD8-APC 100711, CD8-PE 100707, CD45-APC 103112, PD-L1-PE 124307, adsorbed secondary antibody-APC, and CD69-PE 104511). The cells were then washed and resuspended in staining buffer for flow cytometry. For cytokine detection, tumor single-cell suspensions and spleen lymphocytes were incubated in RPMI-1640 with 10% FBS and 0.2% Cell Stimulation Cocktail (plus protein transport inhibitors) (eBioscience 00-4975-93) at 37 °C for 12 h. […] Flow cytometry was performed on ACEA NovoCyte, and the data were analyzed using NovoExpress. […]
Total RNA was isolated using TRIzol reagent (Invitrogen, 15596026) according to the manufacturer’s protocol. […] Quantitative real-time PCR analysis was performed by mixing 10 μl SYBR, 0.4 μM forward primer, 0.4 μM reverse primer, 1 μl cDNA, and 8.2 μl distilled water per sample with Top Green qPCR SuperMix (Transgene, AQ601-04) by the manufacturer’s protocols. […]

NC(=O)c1ccc[n+]([C@@H]2O[C@H](COP(=O)([O-])O)[C@@H](O)[C@H]2O)c1 [NMN, nicotinamide mononucleotide]
Relative NAD+ ([1]; NMN 1 μM added to LZFPN-90 (NMN 0 μM values equal those of 5 nM LZFPN-90)): 79.1005 and 77.5282
Relative NAD+ ([1]; NMN 5 μM added to LZFPN-90): 81.63 and 81.9669
Relative NAD+ ([1]; NMN 10 μM added to LZFPN-90): 85.5982 and 82.7424
Relative NAD+ ([1]; NMN 20 μM added to LZFPN-90): 92.0905 and 93.6414
Relative NAD+ ([1]; NMN 40 μM added to LZFPN-90): 91.3204 and 94.481

O=C(c1ncc(CNC2CCOCC2)s1)N1CCc2c(-c3ccc4c(c3)OCCO4)cccc21 [CQ-85]
content of NAD+ ([2]; +PBMC): 10.9402 and 9.994 and 10.0633
content of NAD+ ([2]; -PBMC): 11.853 and 11.7415 and 11.8655
Aldoa mRNA level [3]: 0.8847 and 0.8971 and 0.9885
Eno1 mRNA level [3]: 1.112 and 1.398 and 1.35
Glut1 mRNA level [3]: 2.253 and 2.993 and 2.146
HK2 mRNA level [3]: 5.011 and 5.445 and 5.877
Pfk1 mRNA level [3]: 1.666 and 1.544 and 1.005
IFN-γ (ELISA) [4]: 32.0391 and 39.4609 and 37.7422 and 48.3828
TNF-α (ELISA) [4]: 49.9785 and 53.7419 and 61.1613 and 63.957
content of pyruvate (PA) ([5]; +PBMC): 0.2271 and 0.2241 and 0.2316
content of pyruvate (PA) ([5]; -PBMC): 0.1159 and 0.1109 and 0.1297
IFN-γ (ELISA) [6]: 156.023 and 118.367 and 126.961
TNF-α (ELISA) [6]: 198.796 and 198.903 and 183.742
Aldoa mRNA level ([7]; +T Cells): 3.122 and 3.144 and 2.933
Eno1 mRNA level ([7]; +T Cells): 1.63 and 2.181 and 1.51
HK2 mRNA level ([7]; +T Cells): 1.976 and 1.225 and 1.397
Pfk1 mRNA level ([7]; +T Cells): 4.524 and 5.686 and 6.18
Aldoa mRNA level ([7]; -T Cells): 0.1409 and 0.1113 and 0.07549
Eno1 mRNA level ([7]; -T Cells): 1.412 and 1.0924 and 0.8165
Glut1 mRNA level ([7]; -T Cells): 0.4601 and 0.3164 and 0.3635
HK2 mRNA level ([7]; -T Cells): 1.925 and 1.641 and 1.032
Aldoa mRNA level [8]: 0.8971 and 0.8909 and 1.1434
Eno1 mRNA level [8]: 0.7363 and 0.9515 and 0.8284
Pfk1 mRNA level [8]: 0.9428 and 1.091 and 0.7397
TIR / tumor growth inhibition (TGI) rate at endpoint [9]: 45.36%
content of NAD+ ([10]; +PBMC): 9.197 and 8.685 and 8.9355
content of NAD+ ([10]; -PBMC): 11.8739 and 12.9843 and 12.9544
content of pyruvate (PA) ([11]; +T Cells): 0.4897 and 0.4757 and 0.4584
content of pyruvate (PA) ([11]; -T Cells): 0.334 and 0.378 and 0.3588
content of NAD+ ([12]; taken as +T cells by analogy with Fig 2G): 6.631 and 6.489 and 6.614
content of NAD+ ([12]; taken as -T cells by analogy with Fig 2G): 10.4157 and 11.1416 and 12.0617
content of pyruvate (PA) ([13]; +PBMC): 0.1029 and 0.09765 and 0.1064
content of pyruvate (PA) ([13]; -PBMC): 0.08688 and 0.08738 and 0.09664
effect on NAMPT protein expression [14]: upregulate the protein expression of NAMPT

O=C(/C=C/c1cccnc1)NCCCCC1CCN(C(=O)c2ccccc2)CC1 [FK866, reference compound]
NAD+ in 20 mg tissue [15]: 98.7342 and 119.831 and 110.802
effect on mouse organ or body weight [16]: caused a reduction in the body weight of the mice
TIR / tumor growth inhibition (TGI) rate at endpoint [9]: 43.62%
effect on PD-L1 expression [17]: upregulated global and membrane PD-L1 expression

COc1nc(OCc2cccc(-c3ccccc3)c2C)ccc1CNCCNC(C)=O [BMS202]
content of NAD+ ([2]; +PBMC, listed as BM202): 10.2853 and 11.0822 and 11.211
content of NAD+ ([2]; -PBMC, listed as BM202): 12.9598 and 12.8438 and 11.842
Aldoa mRNA level ([3]; listed as B202): 1.286 and 1.53 and 1.628
Eno1 mRNA level ([3]; listed as B202): 1.184 and 1.457 and 1.192
Glut1 mRNA level ([3]; listed as B202): 1.195 and 1.4406 and 1.289
HK2 mRNA level ([3]; listed as B202): 4.691 and 5.816 and 5.352
Pfk1 mRNA level ([3]; listed as B202): 1.211 and 0.6057
content of pyruvate (PA) ([5]; +PBMC, listed as BM202): 0.2451 and 0.2361 and 0.2328
content of pyruvate (PA) ([5]; -PBMC, listed as BM202): 0.1485 and 0.1357 and 0.1294
IFN-γ (ELISA) ([6]; listed as B202): 155.867 and 141.57 and 156.336
TNF-α (ELISA) ([6]; listed as B202): 199.656 and 157.29 and 212.022
Eno1 mRNA level ([7]; +T Cells, listed as B202): 3.494 and 3.959 and 2.858
HK2 mRNA level ([7]; +T Cells, listed as B202): 2.644 and 2.833 and 1.744
Pfk1 mRNA level ([7]; +T Cells, listed as B202): 5.686 and 6.904
Aldoa mRNA level ([7]; -T Cells, listed as B202): 0.06048 and 0.109 and 0.06804
Eno1 mRNA level ([7]; -T Cells, listed as B202): 0.7778 and 1.3449 and 0.7359
Glut1 mRNA level ([7]; -T Cells, listed as B202): 0.3392 and 0.2003 and 0.2483
HK2 mRNA level ([7]; -T Cells, listed as B202): 1.261 and 1.177 and 0.9693
Aldoa mRNA level ([8]; listed as B202): 0.4841 and 0.4127 and 0.7087
Eno1 mRNA level ([8]; listed as B202): 0.9159 and 1.082 and 0.8085
HK2 mRNA level ([8]; listed as B202): 0.02498 and 0.01465 and 0.021
Pfk1 mRNA level ([8]; listed as B202): 0.7631 and 0.9395 and 1
content of NAD+ ([10]; +PBMC, listed as BM202): 8.982 and 8.901 and 8.955
content of NAD+ ([10]; -PBMC, listed as BM202): 11.875 and 11.7227 and 11.9827
content of pyruvate (PA) ([11]; +T Cells, listed as B202): 0.5383 and 0.5346 and 0.5309
content of pyruvate (PA) ([11]; -T Cells, listed as B202): 0.3322 and 0.3345 and 0.3513
content of NAD+ ([12]; taken as +T cells by analogy with Fig 2G, listed as BM202): 6.047 and 6.219 and 6.464
content of NAD+ ([12]; taken as -T cells by analogy with Fig 2G, listed as BM202): 11.761 and 12.9475 and 11.7876
content of pyruvate (PA) ([13]; +PBMC, listed as BM202): 0.1117 and 0.1102 and 0.1239
content of pyruvate (PA) ([13]; -PBMC, listed as BM202): 0.09589 and 0.0979 and 0.1044

CC(NC(=O)c1ccccc1/N=C/c1c(O)ccc2ccccc12)c1ccccc1 (centres unmarked) [Sirtinol]
effect on PD-L1 expression [17]: PD-L1 was upregulated at both the mRNA and protein levels

Source: publication PMC11018795, “The regulatory relationship between NAMPT and PD-L1 in cancer and identification of a dual-targeting inhibitor” (EMBO Molecular Medicine, 2024)
